From patent US20090280982A1, “Quinolinylmethyl Compounds” (BASF SE, priority 2006, published 2009)

Assays:
[1] = test system: Diamond Back Moth (plutella xylostella); conditions: in vivo
Protocol: II.5 Activity Against Diamond Back Moth (plutella xylostella)
The active compounds were formulated in 50:50 acetone:water and 0.1% (vol/vol) Alkamuls EL 620 surfactant. A 6 cm leaf disk of cabbage leaves was dipped in the test solution for 3 seconds and allowed to air dry in a Petri plate lined with moist filter paper. The leaf disk was inoculated with 10 third instar larvae and kept at 25-27° C. and 50-60% humidity for 3 days. Mortality was assessed after 72 h of treatment.

[2] = test system: Green Peach Aphid (Myzus persicae); conditions: in vivo
Source text: II.2 Activity Against Green Peach Aphid (Myzus persicae)
The active compounds were formulated in 50:50 acetone:water and 100 ppm Kinetic™ surfactant.
Pepper plants in the 2nd leaf-pair stage (variety California Wonder) were infested with approximately 40 laboratory-reared aphids by placing infested leaf sections on top of the test plants. The leaf sections were removed after 24 hr. The leaves of the intact plants were dipped into gradient solutions of the test compound and allowed to dry. Test plants were maintained under fluorescent light (24 hour photoperiod) at about 25° C. and 20-40% relative humidity. Aphid mortality on the treated plants, relative to mortality on check plants, was determined after 5 days.

[3] = test system: Brown Planthopper (nilaparvata lugens); assay: Activity against brown planthopper (II.7); assay type: in vivo; conditions: for mortality [%] at 300 ppm: brown plant hopper (II.7)
Protocol: II.7 Activity Against Brown Planthopper (nilaparvata lugens)
The active compounds were formulated as a 20:80 acetone:water solution. Surfactant (Alkamuls EL 620) was added at the rate of 0.1% (vol/vol).
Potted rice plants of 3-4 weeks of age are sprayed with 10 ml of the test solution using air driven hand atomizer (Devillbis atomizer) at 1.7 bar. The treated plants are allowed to dry for about 1 hour and covered with Mylar cages. The plants are inoculated with 10 adults of the specie (5 male and 5 females) and kept at 25-27° C. and 50-60% humidity for 3 days. Mortality is assed after 24, 48 and 72 hours after treatment. Dead insects are usually found in the water surface. Each treatment is replicated once.

[4] = test system: Flea Beetle (Phylotretta striolata); assay: Activity against flea beetle (II.19); assay type: in vivo; conditions: at 300 ppm; after 3 days; leaf disc dip
Protocol: II.19 Activity Against Flea Beetle (Phylotretta striolata)
Flea bettle (Phylotretta striolata) adults used for bioassay are obtained from a colony maintained continuously under laboratory conditions. For testing purposes, the test compound is diluted to a concentration of 300 ppm (wt compound: vol diluent) in a 1:1 mixture of acetone:water, plus 0.1% EL 620 surfactant.
Activity of each compound is evaluated using a […]. Glass petri dishes (60×15 mm) lined with moist filter paper serves as test arenas. All leaf discs are dipped into treatment solution for approximately 3 seconds and allowed to dry for 2 hours. Each treated leaf disc is placed into individual petri dishes and inoculated with 10 adult beetles. Petri dishes are then covered with lids. All test arenas are held under continuous light and a temperature of about 28° C. for duration of the assay. After 3 days, percent mortality is observed.

[5] = test system: Rice Green Leaf Hoppers (Nephotettix virescens); assay: Activity against rice green leaf hoppers (II.20); assay type: in vivo; conditions: at 300 ppm; after 72 hours; rice foliar spray
Protocol: II.20 Activity Against Rice Green Leaf Hoppers (Nephotettix virescens)
Leaf hopper adults used for bioassay are obtained from a colony maintained continuously under laboratory conditions. For testing purposes, the test compound is diluted in 300 ppm (wt compound:vol diluent) in a 1:1 mixture of acetone:water, plus 0.1% EL 620 surfactant.
Hopper activity is evaluated using the foliar spray technique. Potted rice plants (2-3 week old, Variety TN-1) are cleaned and dried prior to application. All plants are treated inside the fume hood using DeVilbiss atomizer at 25 psi with a spray volume of 5 ml/plant. To ensure uniform spray distribution, plants were placed in a rotating flat form inside the fume hood. Treated plants are then placed inside the holding room and allowed to dry for 2 hours. Each plant are caged using Mylar cages (4 inches diameter×19 inches in height) and inoculated with 10 adults hoppers. All test plants are held under continuous light and a temperature of about 28° C. for duration of the assay. Percent mortality is observed after 72 hours.

SMILES | mortality [%] at 300 ppm [1] | mortality [%] at 10 ppm [2] | mortality [%] at 100 ppm [2] | mortality [%] at 300 ppm [2] | mortality [%] at 300 ppm [3] | mortality in comparison with untreated controls ([3]; at 300 ppm, rice plants sprayed, up to 72 hours) | mortality in comparison with untreated controls [4] | mortality in comparison with untreated controls [5]
O=S(=O)(NCc1ccnc2ccccc12)c1ccc(-c2ccc(C(F)(F)F)cc2)cc1 [Compound C2, reference compound] | 0% | 0% | 60% | 100% | 0% | – | – | –
O=S(=O)(NCc1ccnc2ccccc12)c1ccc(-c2ccc(C(F)(F)F)cc2)c(C(F)(F)F)c1 [Compound B16] | – | – | – | – | 100% | at least 75% | – | –
O=S(=O)(NCc1ccnc2ccccc12)c1ccc(-c2ccc(OC(F)(F)F)cc2)c(F)c1 [Compound B14] | – | – | 90% | 90% | – | – | – | –
O=S(=O)(NCc1ccnc2ccccc12)c1ccc(-c2ccc(C(F)(F)F)cc2Cl)cc1F [Compound B85] | – | – | – | – | – | – | at least 75% | at least 75%
O=S(=O)(NCc1ccnc2ccccc12)c1ccc(-c2ccc(OC(F)(F)F)cc2)cc1 [Compound C1, reference compound] | – | – | 0% | 60% | – | – | – | –
O=S(=O)(NCc1ccnc2ccccc12)c1ccc(-c2ccc(C(F)(F)F)cc2)c(Cl)c1 [Compound B24] | 100% | 90% | 90% | 100% | – | – | – | –
